The text below walks through data of patent publication US12435044B2, “Pyridazinone herbicides and pyridazinone intermediates used to prepare a herbicide” (FMC Corporation, priority 2018, dated 2025).

Holding throughout (assay type): in vivo
Assay [1] relates to rice (ORYSS; Oryza sativa, cv. M202). Nature of the assay: Test M postemergence, mixtures of Cpd. No. 20 with isoxadifen-ethyl, cloquintocet-mexyl or Mefenpyr-diethyl. To be noted: approx. 14 d. The text has this: This test evaluated the effect of mixtures of Cpd. No. 20 with isoxadifen-ethyl, or cloquintocet-mexyl, or Mefenpyr-diethyl on several plant species. Seeds of plant species selected from corn (ZEAMD; Zea mays, cv. ‘Pioneer 1184’), soybean (GLXMA; Glycine max, cv. Pioneer 35T58), winter wheat (TRZAW; Triticum aetivum, cv. Arezzo), winter barley (HORVW; Hordeum vulgare, cv. Boone), rice (ORYSS; Oryza sativa, cv. M202), and giant foxtail (SETFA; Setaria faberi) were planted in pots containing Redi-Earth® planting medium (Scotts Company, 14111 Scottslawn Road, Marysville, Ohio 43041) comprising spaghnum peat moss, vermiculite, wetting agent and starter nutrients and treated postemergence using test chemicals formulated in a non-phytotoxic solvent mixture which included a surfactant. Plants ranged in height from 7 to 10 cm and were in the one- to two-leaf stage for the postemergence treatment. Treated plants and untreated controls were maintained in a greenhouse for approximately 14 d, after which time all treated plants were compared to untreated controls and visually evaluated for injury. Plant response ratings, summarized in Tables M1 to M3, are based on a 0 to 100 scale where 0 is no effect and 100 is complete control. A dash (-) response means no test result. Test results are presented as a mean of 3 reps.

Assay [2] relates to foxtail, giant (Setaria faberii). Nature of the assay: Test A pre-/postemergence greenhouse test. The text has this:
(§1) Seeds of plant species selected from barnyardgrass (Echinochloa crus-galli), kochia (Kochia scoparia), ragweed (common ragweed, Ambrosia elatior), ryegrass, Italian (Lolium multiflorum), foxtail, giant (Setaria faberii), foxtail, green (Setaria viridis) and pigweed (Amaranthus retroflexus) were planted into a blend of loam soil and sand and treated preemergence with a directed soil spray using test chemicals formulated in a non-phytotoxic solvent mixture which included a surfactant.
(§2) At the same time, plants selected from these weed species and also wheat (Triticum aestivum), corn (Zea mays), blackgrass (Alopecurus myosuroides) and galium (catchweed bedstraw, Galium aparine) were planted in pots containing the same blend of loam soil and sand and treated with postemergence applications of test chemicals formulated in the same manner. Plants ranged in height from 2 to 10 cm and were in the one- to two-leaf stage for the postemergence treatment. Treated plants and untreated controls were maintained in a greenhouse for approximately 10 d, after which time all treated plants were compared to untreated controls and visually evaluated for injury. Plant response ratings, summarized in Table A, are based on a 0 to 100 scale where 0 is no effect and 100 is complete control. A dash (-) response means no test result.

In assay [3] the test system is corn (Zea mays). Nature of the assay: Test E pre-/postemergence greenhouse test. An excerpt: (§3) Seeds of plant species selected from corn (Zea mays), soybean (Glycine max), velvetleaf (Abutilon theophrasti), lambsquarters (Chenopodium album), poinsettia, wild (Euphorbia heterophylla), pigweed, palmer (Amaranthus palmeri), waterhemp (common waterhemp, Amaranthus rudis), surinam grass (Brachiaria decumbens), crabgrass, large (Digitaria sanguinalis), crabgrass, Brazil (Digitaria horizontalis), panicum, fall (Panicum dichotomiflorum), foxtail, giant (Setaria faberii), foxtail, green (Setaria viridis), goosegrass (Eleusine indica), johnsongrass (Sorghum halepense), ragweed (common ragweed, Ambrosia elatior), barnyardgrass (Echinochloa crus-galli), sandbur (southern sandbur, Cenchrus echinatus), arrowleaf sida (Sida rhombifolia), ryegrass, Italian (Lolium multiflorum), dayflower, VA (Virginia (VA) dayflower, Commelina virginica), field bindweed (Convolvulus arvensis), morningglory (Ipomoea coccinea), horseweed (Conyza canadensis), kochia (Kochia scoparia), nutsedge, yellow (Cyperus esculentus) and hairy beggarticks (Bidenspilosa), were planted into a silt loam soil and treated preemergence with test chemicals formulated in a non-phytotoxic solvent mixture which included a surfactant.
(§4) At the same time, plants selected from these crop and weed species and also waterhemp_RES1, (ALS & Triazine resistant common waterhemp, Amaranthus rudis), and waterhemp_RES2, (ALS & HPPD resistant common waterhemp, Amaranthus rudis) were planted in pots containing Redi-Earth® planting medium (Scotts Company, 14111 Scottslawn Road, Marysville, Ohio 43041) comprising spaghnum peat moss, vermiculite, wetting agent and starter nutrients were treated with postemergence applications of test chemicals formulated in the same manner. Plants ranged in height from 2 to 18 cm for postemergence treatments (1- to 4-leaf stage). Treated plants and controls were maintained in a greenhouse for 14 to 21 d, after which time all species were compared to controls and visually evaluated. Plant response ratings, summarized in Table E, are based on a scale of 0 to 100 where 0 is no effect and 100 is complete control. A dash (-) response means no test result.

Assay [4] concerns waterhemp (common waterhemp, Amaranthus rudis). Nature of the assay: Test E pre-/postemergence greenhouse test.
Source text: as §3, §4

Assay [5] has as its system crabgrass, large (Digitaria sanguinalis). Nature of the assay: Test E pre-/postemergence greenhouse test. To be noted: Preemergence.
Source text: as §3, §4

For assay [6], the system named is barnyardgrass (Echinochloa crus-galli). Nature of the assay: Test E pre-/postemergence greenhouse test. To be noted: Preemergence.
Source text: as §3, §4

The test system of assay [7] is panicum, fall (Panicum dichotomiflorum). Nature of the assay: Test E pre-/postemergence greenhouse test.
Source text: as §3, §4

Assay [8] concerns foxtail, giant (Setaria faberii). Nature of the assay: Test E pre-/postemergence greenhouse test. The settings on record: Preemergence.
Source text: as §3, §4

Assay [9] concerns foxtail, green (Setaria viridis). Nature of the assay: Test A pre-/postemergence greenhouse test.
Source text: as §1, §2

On to `Cc1ccc2ccc(C)c(-c3c(O)c(Cl)nn(C)c3=O)c2c1` [Cpd. No. 20, 6-chloro-4-(2,7-dimethyl-1-naphthalenyl)-5-hydroxy-2-methyl-3(2H)-pyridazinone], for which the “Plant response rating (0 to 100 scale) ORYSS” value in [1] (Cpd. No. 20 alone 62 g a.i./ha) came to 20; in [1] (Cpd. No. 20 alone 125 g a.i./ha), 35; in assay [1] (Cpd. No. 20 alone 250 g a.i./ha), 40; in [1] (Cpd. No. 20 alone 375 g a.i./ha), 40. The “Plant response rating (0 to 100 scale)” value is on record as 80 in [2] (Postemergence, 31 g ai/ha); 100 in assay [2] (Postemergence, 125 g ai/ha); 80 in [2] (Preemergence, 31 g ai/ha); 100 in [2] (Preemergence, 125 g ai/ha). Also, the “Plant response rating, Corn” value in assay [3] (Postemergence, 16 g ai/ha) is 5; in assay [3] (Postemergence, 31 g ai/ha) it was 20; in [3] (Postemergence, 62 g ai/ha) it was 10; in assay [3] (Postemergence, 125 g ai/ha), 10; in assay [3] (Preemergence, 16 g ai/ha) it was 0; in assay [3] (Preemergence, 31 g ai/ha), 0. Also, the “Plant response rating, Corn” value was found to be 0 in [3] (Preemergence, 62 g ai/ha) and 0 in [3] (Preemergence, 125 g ai/ha). Moreover, the “Plant response rating, Waterhemp” value in assay [4] (Postemergence, 16 g ai/ha) was 75; in assay [4] (Postemergence, 31 g ai/ha), 75; in assay [4] (Postemergence, 62 g ai/ha) it was 95; in assay [4] (Postemergence, 125 g ai/ha) it was 90; in assay [4] (Preemergence, 16 g ai/ha), 60; in assay [4] (Preemergence, 31 g ai/ha), 70. In addition, the “Plant response rating, Waterhemp” value in assay [4] (Preemergence, 62 g ai/ha) amounted to 98; in [4] (Preemergence, 125 g ai/ha), 100. The “Plant response rating, Crabgrass, Large” value in assay [5] (16 g ai/ha) came to 65; in assay [5] (31 g ai/ha), 65; in assay [5] (62 g ai/ha), 75; in [5] (125 g ai/ha), 80. Also, the “Plant response rating, Barnyardgrass” value in assay [6] (16 g ai/ha) amounted to 0; in assay [6] (31 g ai/ha) it was 75; in [6] (62 g ai/ha) it was 80; in assay [6] (125 g ai/ha), 100. Also, the “Plant response rating, Panicum, Fall” value is given as 70 in assay [7] (Postemergence, 16 g ai/ha); 90 in assay [7] (Postemergence, 31 g ai/ha); 90 in assay [7] (Postemergence, 62 g ai/ha); 95 in assay [7] (Postemergence, 125 g ai/ha); 75 in assay [7] (Preemergence, 16 g ai/ha); 98 in assay [7] (Preemergence, 31 g ai/ha). The “Plant response rating, Panicum, Fall” value in assay [7] (Preemergence, 62 g ai/ha) was 98; in assay [7] (Preemergence, 125 g ai/ha), 100. In addition, the “Plant response rating, Foxtail, Giant” value in assay [8] (16 g ai/ha) is listed as 10; in assay [8] (31 g ai/ha) it was 60; in assay [8] (62 g ai/ha), 90; in assay [8] (125 g ai/ha), 98.
Regarding `Cc1ccc2ccc(F)cc2c1-c1c(O)c(Cl)nn(C)c1=O` [Cpd. No. 21], the “Plant response rating (0 to 100 scale)” value is listed as 90 in assay [9] (Postemergence, 31 g ai/ha); 100 in assay [9] (Postemergence, 125 g ai/ha); 70 in assay [9] (Preemergence, 31 g ai/ha); 100 in assay [9] (Preemergence, 125 g ai/ha).
